The values below come from patent publication US10780127B2, “Method for producing fermented milk having high angiotensin converting enzyme inhibitory activity and method for producing physiologically active peptide” (NATIONAL UNIVERSITY CORPORATION TOTTORI UNIVERSITY, priority 2016, dated 2020).

Molecules are shown by their SMILES. Read-outs that look alike come from different tables or passages of the source. Peptide text beside a SMILES is read from it.

Assay [1] deals with T1, ACE (Homo sapiens, UniProt P12821). In words: Reported IC50 value of YP for ACE. Conditions: corresponds to 720 μM; read-out: IC50 value of YP for ACE, corresponding mass concentration (converted). Format: biochemical.
T1 sequence (P12821 30-1306, species assumed): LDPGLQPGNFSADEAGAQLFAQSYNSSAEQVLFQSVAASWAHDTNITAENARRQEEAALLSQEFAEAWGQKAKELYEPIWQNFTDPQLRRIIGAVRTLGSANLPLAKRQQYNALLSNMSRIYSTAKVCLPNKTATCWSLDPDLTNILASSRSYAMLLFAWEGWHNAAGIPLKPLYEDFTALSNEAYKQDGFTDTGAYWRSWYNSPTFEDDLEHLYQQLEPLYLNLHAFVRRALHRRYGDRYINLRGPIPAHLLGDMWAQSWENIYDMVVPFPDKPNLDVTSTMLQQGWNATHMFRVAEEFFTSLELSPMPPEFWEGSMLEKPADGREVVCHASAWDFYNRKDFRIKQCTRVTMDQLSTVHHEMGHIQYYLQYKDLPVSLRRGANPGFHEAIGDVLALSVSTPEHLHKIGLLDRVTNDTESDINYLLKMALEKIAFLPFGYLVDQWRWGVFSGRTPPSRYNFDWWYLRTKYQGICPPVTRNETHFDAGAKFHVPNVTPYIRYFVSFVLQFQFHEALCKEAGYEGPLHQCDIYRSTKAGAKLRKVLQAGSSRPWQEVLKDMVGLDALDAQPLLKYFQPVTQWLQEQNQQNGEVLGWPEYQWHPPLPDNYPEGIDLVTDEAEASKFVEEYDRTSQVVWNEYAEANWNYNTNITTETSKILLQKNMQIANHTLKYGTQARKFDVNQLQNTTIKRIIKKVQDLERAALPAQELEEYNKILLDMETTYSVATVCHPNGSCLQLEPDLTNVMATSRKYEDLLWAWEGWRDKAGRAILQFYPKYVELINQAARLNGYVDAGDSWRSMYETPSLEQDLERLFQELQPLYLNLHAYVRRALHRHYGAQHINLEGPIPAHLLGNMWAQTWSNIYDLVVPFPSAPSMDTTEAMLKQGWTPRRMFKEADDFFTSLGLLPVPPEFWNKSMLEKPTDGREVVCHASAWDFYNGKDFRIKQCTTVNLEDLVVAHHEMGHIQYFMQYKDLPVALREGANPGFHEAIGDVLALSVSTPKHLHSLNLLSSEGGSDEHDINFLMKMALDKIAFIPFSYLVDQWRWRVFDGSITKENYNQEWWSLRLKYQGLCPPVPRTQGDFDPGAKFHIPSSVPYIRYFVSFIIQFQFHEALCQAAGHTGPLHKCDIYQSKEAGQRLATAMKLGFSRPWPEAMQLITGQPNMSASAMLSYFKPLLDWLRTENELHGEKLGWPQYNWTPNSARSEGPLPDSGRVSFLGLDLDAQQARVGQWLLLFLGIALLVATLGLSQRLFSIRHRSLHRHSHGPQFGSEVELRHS
Assay [2] concerns the target T1, ACE. Conditions: reported value; read-out: IC50 value of YP for ACE; cited from earlier work.

Take `N[C@@H](Cc1ccc(O)cc1)C(=O)N1CCC[C@H]1C(=O)O` [YP, Tyr-Pro] (H-Tyr-Pro-OH): the IC50 was 719 µM on ACE [1] and 720 µM at ACE [2].
